Measured values as given in patent US4110322A, “Peptide derivatives and pharmaceutical compositions containing same” (Akzona Incorporated, priority 1976, dated 1978).
Where no end group is shown, it is not given here. [ ]: non-standard residue; d: D form.

Legend:
[1] = tested on: extinction of conditioned flight behaviour; experiment: inhibition (retardation) of the extinction of conditioned flight behaviour; psychopharmacological activity; type: in vivo; conditions: for Potency Ratio with Respect to 4-10 ACTH: 4-10 ACTH = 1
Source text: This invention relates to the field of pharmaceutical compounds, and to the sub-field of psychopharmacologically active compounds. The compounds in question show an inhibition of the extinction of conditioned flight behaviour, as a result of which they are eminently suitable for the treatment of mental disorders in which a stimulation of the cerebral function is desired, such as in case of senility. The invention further relates to pharmaceutical compositions containing these peptide compounds or their derivatives where the latter are an active constituent.

[2] = tested on: extinction of conditioned flight behaviour; conditions: cited from earlier work; for retardation of the extinction of conditioned flight behaviour: European Journal of Pharmacology 2, 14 (1967)

Row | Substance | Potency Ratio with Respect to 4-10 ACTH ([1]; Table I) | Potency Ratio with Respect to 4-10 ACTH ([1]; Table II) | further results
1 | Phe-[dK]-Phe | 0.1 |  | psychopharmacological activity (in words) ([1]; in vivo): some psychopharmacological activity, although in a latent form
2 | F[dK]FGKPVGK |  | 1 | 
3 | F[dK]FG[dK]PVGKK |  | 10,000 | 
4 | 4-10 ACTH: the peptide containing the amino-acid sequence 4-10 from ACTH (MEHFRWG; Corticotropin; UniProt P01189 141-147, looked up, fragment) |  |  | retardation of the extinction of conditioned flight behaviour [2]: as active as ACTH itself
5 | ACTH: natural adrenocorticotropic hormone (SYSMEHFRWGKPVGKKRRPVKVYPNGAEDESAEAFPLEF; Corticotropin; UniProt P01189 138-176, looked up) |  |  | retardation of the extinction of conditioned flight behaviour [2]: retard the extinction
6 | F[dK]FGKPVGKK | 100 | 100 | 
7 | H-L-Met (→ O)-L-Glu-L-His-L-Phe-D-Lys-L-Phe-OH |  |  | activity relative to the unchanged 4-9 ACTH ([2]; psychopharmacological activity, peptide of the earlier U.S. patents): about 1000 times
8 | Phe-Arg-Trp [7-9 ACTH] | 0.1 |  | 
9 | FRWGKPVGKK [7-16 ACTH] | 1 | 1 | 
